Measured values reported in patent US4468511A, “C-20- And C-23-Modified macrolide derivatives” (Eli Lilly and Company, priority 1983, dated 1984).
Values after ≈ are worked out from the molar mass of the structure shown. Like-named read-outs stand apart in the source and are kept apart here.

Legend:
[1] = test system: Streptococcus Group D X66; experiment: MIC, standard agar-dilution assay; assay type: cell-based
Method: (§1) Certain of the derivatives are active against some gram-negative bacteria, such as Pasteurella species. The MIC's in Table II were determined by standard agar-dilution assays. The MIC's in Table III were obtained using a conventional broth-dilution microtiter test.

[2] = test system: Staphylococcus aureus X1.1; experiment: MIC, standard agar-dilution assay; assay type: cell-based
Method: as §1

[3] = test system: Klebsiella pneumoniae KAE; experiment: MIC, standard agar-dilution assay; assay type: cell-based; details: agar-dilution; Klebsiella pneumoniae KAE; read-out: MIC
Method: as §1

[4] = test system: Staphylococcus aureus V41; experiment: MIC, standard agar-dilution assay; assay type: cell-based
Method: as §1

[5] = test system: Streptococcus pyogenes C203; experiment: MIC, standard agar-dilution assay; assay type: cell-based
Method: as §1

[6] = test system: Streptococcus pneumoniae Park I; experiment: MIC, standard agar-dilution assay; assay type: cell-based
Method: as §1

[7] = test system: Escherichia coli EC14; experiment: MIC, standard agar-dilution assay; assay type: cell-based; details: agar-dilution; Escherichia coli EC14; read-out: MIC
Method: as §1

[8] = test system: Streptococcus pyogenes 9960; experiment: MIC, standard agar-dilution assay; assay type: cell-based
Method: as §1

[9] = test system: Escherichia coli TEM; experiment: MIC, standard agar-dilution assay; assay type: cell-based; details: agar-dilution; Escherichia coli TEM; read-out: MIC
Method: as §1

[10] = test system: Klebsiella pneumoniae X26; experiment: MIC, standard agar-dilution assay; assay type: cell-based
Method: as §1

[11] = test system: Staphylococcus aureus X400; experiment: MIC, standard agar-dilution assay; assay type: cell-based
Method: (§2) The MIC's in Table II were determined by standard agar-dilution assays. The MIC's in Table III were obtained using a conventional broth-dilution microtiter test.

[12] = test system: Haemophilus influenzae C.L.; experiment: MIC, standard agar-dilution assay; assay type: cell-based
Method: as §2

[13] = test system: Staphylococcus epidermidis EPI2; experiment: MIC, standard agar-dilution assay; assay type: cell-based; details: agar-dilution; Staphylococcus epidermidis EPI2; read-out: MIC
Method: as §2

[14] = test system: Staphylococcus aureus; experiment: MIC, conventional broth-dilution microtiter test; assay type: cell-based; details: broth-dilution microtiter, read-out: MIC
Method: as §1

[15] = test system: Pasteurella multocida 17E; experiment: MIC, conventional broth-dilution microtiter test; assay type: cell-based; details: broth-dilution microtiter; Pasteurella multocida 17E, Bovine isolate; read-out: MIC
Method: as §1

[16] = test system: Mycoplasma hyorhinis; experiment: MIC, conventional broth-dilution microtiter test; assay type: cell-based
Method: as §1

[17] = test system: Pasteurella multocida 22A; experiment: MIC, conventional broth-dilution microtiter test; assay type: cell-based; details: broth-dilution microtiter; Pasteurella multocida 22A; read-out: MIC
Method: as §1

[18] = test system: Mycoplasma gallisepticum 34159; experiment: MIC, conventional broth-dilution microtiter test; assay type: cell-based; details: Mycoplasmoides gallisepticum
Method: as §1

[19] = test system: Pasteurella multocida 68C; experiment: MIC, conventional broth-dilution microtiter test; assay type: cell-based
Method: as §1

[20] = test system: Pasteurella hemolytica 22C; experiment: MIC, conventional broth-dilution microtiter test; assay type: cell-based; details: broth-dilution microtiter; Pasteurella hemolytica 22C; read-out: MIC
Method: as §1

[21] = test system: Mycoplasma gallisepticum; experiment: MIC, conventional broth-dilution microtiter test; assay type: cell-based; details: Mycoplasmoides gallisepticum
Method: as §1

[22] = test system: Mycoplasma synoviae; experiment: MIC, conventional broth-dilution microtiter test; assay type: cell-based; details: Mycoplasmopsis synoviae
Method: as §1

[23] = test system: Streptococcus sp. 80; experiment: MIC, conventional broth-dilution microtiter test; assay type: cell-based
Method: as §1

[24] = test system: Pasteurella multocida 40G; experiment: MIC, conventional broth-dilution microtiter test; assay type: cell-based
Method: as §1

[25] = test system: Pasteurella hemolytica 41D; experiment: MIC, conventional broth-dilution microtiter test; assay type: cell-based; details: broth-dilution microtiter; Pasteurella hemolytica 41D; read-out: MIC
Method: as §1

[26] = test system: Pasteurella multocida 60A; experiment: MIC, conventional broth-dilution microtiter test; assay type: cell-based
Method: as §1

[27] = test system: Pasteurella hemolytica 23C; experiment: MIC, conventional broth-dilution microtiter test; assay type: cell-based; details: broth-dilution microtiter; Pasteurella hemolytica 23C; read-out: MIC
Method: as §1

[28] = test system: Mycoplasma gallisepticum 41313; experiment: MIC, conventional broth-dilution microtiter test; assay type: cell-based; details: Mycoplasmoides gallisepticum
Method: as §1

[29] = test system: Streptococcus pyogenes C203; experiment: Protection of mice experimentally infected with S. pyogenes C203; assay type: in vivo;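 also: two doses given 1 and 4 hours after infection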
Method: Some of the derivatives of this invention have shown in vivo antimicrobial activity against experimentally-induced infections in laboratory animals. When two doses of test compound were administered to mice experimentally infected with S. pyogenes C203, the activity observed was measured as an ED50 value [effective dose in mg/kg to protect 50% of the test animals: see Warren Wick, et al., J. Bacteriol. 81, 233-235 (1961)].

[30] = test system: Staphylococcus epidermidis EPI1; experiment: microbe, parasite or virus in culture; assay type: cell-based
Method: as §2

[31] = test system: Staphylococcus aureus S13E; experiment: microbe, parasite or virus in culture; assay type: cell-based
Method: as §2

[32] = test system: Haemophilus influenzae 76; experiment: MIC, standard agar-dilution assay; assay type: cell-based; details: agar-dilution; Haemophilus influenzae 76, Ampicillin-resistant strain; read-out: MIC
Method: as §2

[33] = agar-dilution, Staphylococcus aureus V41, Penicillin-resistant strain, read-out: MIC
[34] = broth-dilution microtiter, Mycoplasma hyorhinis, read-out: MIC
[35] = broth-dilution microtiter, Mycoplasma gallisepticum 34159, Resistant strain, read-out: MIC
[36] = broth-dilution microtiter, Mycoplasma gallisepticum, read-out: MIC
[37] = broth-dilution microtiter, Streptococcus sp. 80, read-out: MIC
[38] = broth-dilution microtiter, Mycoplasma gallisepticum 41313, Resistant strain, read-out: MIC
[39] = agar-dilution, Staphylococcus epidermidis EPI1, read-out: MIC
[40] = agar-dilution, Streptococcus Group D X66, read-out: MIC
[41] = agar-dilution, Streptococcus pneumoniae Park I, read-out: MIC
[42] = agar-dilution, Streptococcus 9960, read-out: MIC
[43] = agar-dilution, Klebsiella pneumoniae X26, read-out: MIC
[44] = agar-dilution, Haemophilus influenzae C.L., Ampicillin-sensitive strain, read-out: MIC
[45] = broth-dilution microtiter, Pasteurella multocida 68C, read-out: MIC
[46] = broth-dilution microtiter, Pasteurella multocida 40G, read-out: MIC
[47] = broth-dilution microtiter, Pasteurella multocida 60A, Avian isolate, read-out: MIC

SMILES	MIC [3]	MIC [4, 33]	MIC ([5]; Streptococcus pyogenes, C203)	MIC [7]	MIC [9]	MIC [13]	MIC [14]	MIC [15]	MIC [16, 34]	MIC [17]	MIC [18, 35]	MIC [20]	MIC [21, 36]	MIC [23, 37]	MIC [25]	MIC [27]	MIC [28, 38]	MIC [30, 39]	MIC [31]	MIC [1, 40]	other results
CCC1OC(=O)CC(O)C(C)C(OC2OC(C)C(OC3CC(C)(O)C(O)C(C)O3)C(N(C)C)C2O)C(CCNCc2ccccc2)CC(C)C(=O)C=CC(C)=CC1C (centres unmarked) [Compound 25, 20-N-Benzylamino-20-deoxy-20-dihydro-DMOT]	> 128 µg/mL	4 µg/mL (≈ 4.9 µM)	2 µg/mL (≈ 2.45 µM)	> 128 µg/mL	> 128 µg/mL	4 µg/mL (≈ 4.9 µM)	12.5 µg/mL (≈ 15.3 µM)	> 50 µg/mL	> 50 µg/mL	> 50 µg/mL	> 50 µg/mL	> 50 µg/mL	1.56 µg/mL (≈ 1.91 µM)	6.25 µg/mL (≈ 7.65 µM)	> 50 µg/mL	> 50 µg/mL	> 50 µg/mL	4 µg/mL (≈ 4.9 µM)	8 µg/mL (≈ 9.79 µM)	–	MIC [1]: 8 µg/mL (≈ 9.79 µM); MIC ([2]; agar-dilution, Staphylococcus aureus X1.1, read-out: MIC): 4 µg/mL (≈ 4.9 µM); MIC ([6]; Streptococcus pneumoniae): 1 µg/mL (≈ 1.22 µM); MIC [8]; 9960: 8 µg/mL (≈ 9.79 µM); MIC ([10]; Klebsiella pneumoniae, X26): 64 µg/mL (≈ 78.3 µM); MIC ([11]; agar-dilution, Staphylococcus aureus X400, Methicillin-resistant strain, read-out: MIC): 4 µg/mL (≈ 4.9 µM); MIC ([12]; Haemophilus influenzae): 64 µg/mL (≈ 78.3 µM); MIC ([19]; Pasteurella multocida, 68C): 50 µg/mL (≈ 61.2 µM); MIC [22]: 50 µg/mL (≈ 61.2 µM); MIC ([24]; Pasteurella multocida, 40G): 50 µg/mL (≈ 61.2 µM); MIC ([26]; Pasteurella multocida, 60A): 50 µg/mL (≈ 61.2 µM); ED50 ([29]; C203, po, read-out: ED50 Oral): > 100 mg/kg; ED50 ([29]; C203, sc, read-out: ED50 Subcutaneous): > 25 mg/kg
CCC1OC(=O)CC(O)C(C)C(OC2OC(C)C(OC3CC(C)(O)C(O)C(C)O3)C(N(C)C)C2O)C(CCN2C(=O)c3ccccc3C2=O)CC(C)C(=O)C=CC(C)=CC1C (centres unmarked) [Compound 26, 20-N-Phthalimido-20-deoxy-20-dihydro-DMOT]	> 128 µg/mL	–	64 µg/mL (≈ 74.7 µM)	> 128 µg/mL	> 128 µg/mL	32 µg/mL (≈ 37.3 µM)	> 50 µg/mL	> 50 µg/mL	50 µg/mL (≈ 58.3 µM)	> 50 µg/mL	50 µg/mL (≈ 58.3 µM)	> 50 µg/mL	12.5 µg/mL (≈ 14.6 µM)	> 50 µg/mL	> 50 µg/mL	> 50 µg/mL	50 µg/mL (≈ 58.3 µM)	64 µg/mL (≈ 74.7 µM)	64 µg/mL (≈ 74.7 µM)	128 µg/mL (≈ 149 µM)	MIC ([2]; Staphylococcus aureus, X1.1): 64 µg/mL (≈ 74.7 µM); MIC ([4]; Staphylococcus aureus, V41): 32 µg/mL (≈ 37.3 µM); MIC [6, 41]: 8 µg/mL (≈ 9.33 µM); MIC [8, 42]: > 128 µg/mL; MIC [10, 43]: > 128 µg/mL; MIC ([11]; Staphylococcus aureus, X400): 64 µg/mL (≈ 74.7 µM); MIC [32]: > 128 µg/mL; MIC [12, 44]: > 128 µg/mL; MIC [19, 45]: > 50 µg/mL; MIC [24, 46]: > 50 µg/mL; MIC [26, 47]: > 50 µg/mL
CCC1OC(=O)CC(O)C(C)C(OC2OC(C)C(OC3CC(C)(O)C(O)C(C)O3)C(N(C)C)C2O)C(CCN2C(=O)c3ccccc3C2=O)CC(C)C(=O)C=CC(C)=CC1CN1C(=O)c2ccccc2C1=O (centres unmarked) [Compound 38, 20,23-Di-N-phthalimido-20,23-dideoxy-20-dihydro-DMT]	> 128 µg/mL	16 µg/mL (≈ 16 µM)	–	> 128 µg/mL	> 128 µg/mL	16 µg/mL (≈ 16 µM)	25 µg/mL (≈ 24.9 µM)	> 50 µg/mL	–	> 50 µg/mL	–	> 50 µg/mL	–	–	> 50 µg/mL	> 50 µg/mL	–	–	32 µg/mL (≈ 31.9 µM)	> 128 µg/mL	MIC ([2]; Staphylococcus aureus, X1.1): 64 µg/mL (≈ 63.9 µM); MIC ([5]; agar-dilution, Streptococcus pyogenes C203, read-out: MIC): > 128 µg/mL; MIC [6, 41]: 16 µg/mL (≈ 16 µM); MIC [8, 42]: > 128 µg/mL; MIC [10, 43]: > 128 µg/mL; MIC ([11]; Staphylococcus aureus, X400): 64 µg/mL (≈ 63.9 µM); MIC [32]: > 128 µg/mL; MIC [12, 44]: > 128 µg/mL; MIC ([16]; Mycoplasma): 50 µg/mL (≈ 49.9 µM); MIC [18]; 34159: 50 µg/mL (≈ 49.9 µM); MIC [19, 45]: > 50 µg/mL; MIC [21]: 50 µg/mL (≈ 49.9 µM); MIC ([23]; Streptococcus, SP.80): 50 µg/mL (≈ 49.9 µM); MIC [24, 46]: > 50 µg/mL; MIC [26, 47]: > 50 µg/mL; MIC [28]; 41313: 50 µg/mL (≈ 49.9 µM); MIC ([30]; Staphylococcus epidermidis, EPI1): 32 µg/mL (≈ 31.9 µM)
